Seven molecules from patent publication US6582910B1, “WbpP and method for assay of WbpP” (priority 1999, dated 2003) can be followed below.

Data set [1] deals with T1, WbpP (Pseudomonas aeruginosa, UniProt Q8KN66).
T1 construct: made in house; host or cells: E. coli BL21(DE3)pLysS, pET23 derivative
The data set can be described thus: Requirement for NAD+ or divalent cations for enzymatic activity (capillary electrophoresis). The settings on record: NAD+ 1 mM, divalent cations 4 mM, acetylated or non-acetylated substrates. The class given is biochemical. Here is the method: Study of the Requirement for NAD+ or divalent cations for enzymatic activity—To access the requirement for NAD+ or divalent cations for the enzymatic activity of WbpP, reactions were carried out with or without NAD+ (1 mM final concentration), and with or without divalent cations (4 mM final concentration of MnCl2, MgCl2, or CaCl2) and monitored by capillary electrophoresis as described above.

Data set [2] concerns the target T1, WbpP. The data set can be described thus: DMAB spectrophotometric assay of epimerisation of UDP-GlcNAc and UDP-GalNAc. The class given is biochemical. The settings on record: for Specific activity: 0.75 mM substrate. The method, then:
Determination of the enzymatic conversion of UDP-GlcNAc and UDP-GalNAc using p-dimethylaminobenzaldehyde (DMAB)—Reactions were performed with a total reaction volume of 35 μl at 37° C. in 20 mM Tris pH 8 unless stated otherwise. The specific amount of enzyme used, substrate concentrations, and incubation time are indicated in the legend of each figure. The reactions were stopped by acid hydrolysis of the UDP moiety of the substrate. For this purpose, the samples were acidified to pH 2 by addition of 7 μl of HCl 0.1 N, boiled for 6 min, and neutralised by addition of 7 μl of NaOH 0.1 N. For the spectrophotometric quantification of GalNAc and GlcNAc, the reagent DMAB was prepared at 10% in glacial acetic acid/HCl 9/1 v/v, and further diluted 1/10 in glacial acetic acid before use (Reissig et al. (1955)). For the assay itself, 100 μl of 0.2 M sodium tetraborate pH 9.1 were added to 50 μl of quenched and neutralised enzymatic reactions and boiled immediately for 3 min. 40 μl of this mixture were transferred to a microtitration plate and 200 μl of DMAB reagent were added. After incubation for 30 min at 37° C., the OD595 nm was recorded using a microplate reader. For practical reasons, the DMAB assay was carried out using a wavelength setting of 595 nm in the spectrophotometer. […] The assay was done in duplicate for each reaction tested. Standard curves were prepared using UDP-GlcNAc and UDP-GalNAc that were subjected to acid hydrolysis in the same conditions as described above.
FIG. 3: Study of the epimerisation of UDP-GlcNAc and UDP-GalNAc by WbpP using the DMAB assay. Panel A, standard curves obtained with each compound separately. Open circles, UDP-GlcNAc; Open squares, UDP-GalNAc. Panel B, comparison of the experimental data (closed triangles) obtained for mixtures of UDP-GalNAc and UDP-GlcNAc of different proportions (constant total sugar-nucleotide concentration of 0.75 mM) and the theoretical data (open triangles) calculated from the standard curves from panel 3A. 3C: Activity of WbpP as a function of the amount of enzyme added. The reactions were performed with […] substrate in a total volume of 35 μl for 8 min at 37° C. Closed circles, UDP-GlcNAc; Closed squares, UDP-GalNAc.
FIG. 6: Determination of the optimum pH and temperature for the epimerisation of UDP-GlcNAc by WbpP using the DMAB assay: For the pH study (panel A), the reactions were performed with 5 mM UDP-GlcNAc and 39 ng of enzyme in a total volume of 44 μl and incubated for 10 min at 37° C. The pH between 5 and 7 were obtained with 50 mM sodium acetate buffer (open circles), whereas pH 7 to 10 were obtained with 50 mM Tris-HCl (closed circles). For the temperature study (panel B), the reactions were performed in 50 mM Tris-HCl pH 8 with 5 mM UDP-GlcNAc and 0.78 ng of enzyme in a total volume of 44 μl and 30 min incubation. For both panels, two enzymatic reactions were set up in each experimental condition and two determinations of residual UDP-GlcNAc were made per reaction. Each point represents the average of the four determinations.

Data set [3] addresses T1, WbpP. Kind of data set: Capillary electrophoresis, kinetic parameters for UDP-GlcNAc and UDP-GalNAc. The settings on record: acetylated substrates; for kcal: CE; for Km / Vmax: initial rates, 3 min, 37° C., 20 mM Tris pH 8, CE. The class given is biochemical. Here is the method: Determination of the kinetic parameters for UDP-GlcNAc and UDP-GalNAc by capillary electrophoresis—Reactions were performed at 37° C. in 20 mM Tris pH 8 with a total reaction volume of 44 μl. The amount of purified enzyme added was 234 ng and 117 ng for reaction with UDP-GlcNAc and UDP-GalNAc, respectively. After incubation at 37° C. for the required amount of time, the reactions were quenched by boiling the sample for 6 min. Time course studies were performed with final sugar-nucleotide concentrations of 0.075 and 1.75 mM. Samples were quenched after 0, 2, 4, 6, 8, 10 and 15 min. […] Capillary electrophoresis (CE) analysis was performed using a P/ACE 5000 system (Beckman, Fullerton, Calif.) with UV detection. The running buffer was 25 mM sodium tetraborate pH 9.4. The capillary was bare silica 75 μm×57 cm, with a detector at 50 cm. The capillary was conditioned before each run by washing with 0.2 M NaOH for 2 min, water for 2 min, and running buffer for 2 min. Samples were introduced by pressure injection for 4 s and the separation was performed at 22 kV. Peak integration was done using the Beckman P/ACE Station software. The calculation of kinetic parameters was done using the PRISM program.
FIG. 4: Capillary electrophoresis analysis of the epimerisation of UDP-GlcNAc and UDP-GalNAc by WbpP at equilibrium. The reactions were performed in a total volume of 35 μl with 1.5 mM substrate and 17 μg of enzyme. They were incubated at 37° C. for 2 h. 1, UDP-GalNAc alone; 2, UDP-GlcNAc alone; 3, UDP-GlaNAc+WbpP; 4, UDP-GlcNAc+WbpP.
FIG. 5: Time Course of epimerisation of UDP-GlcNAc and UDP-GalNAc by WbpP as measured by capillary electrophoresis. Reactions were performed at 37° C. in 20 mM Tris pH 8 with a total reaction volume of 44 μl. The amount of purified enzyme added was 234 ng and 117 ng for reaction with UDP-GlcNAc and UDP-GalNAc, respectively. Closed circles, UDP-GlcNAc 0.075 mM; Closed squares, UDP-GalNAc 0.075 mM; Open circles, UDP-GlcNAc 1.75 mM; Open squares, UDP-GalNAc 1.75 mM.

Data set [4] is described as follows: Storage stability of purified WbpP. The format is physicochemical. The settings on record: −20° C. in 25% glycerol or 20% adonitol in Tris pH 8. Here is the method: Purification of WbpP by chromatography—Cells sedimented from 100 ml induced culture were resuspended in 10 ml of buffer A (5 mM imidazole, 20 mM Tris pH 8, 0.1 M NaCl). The cells were briefly sonicated (macrotip, sonicator XL2020 Heat systems Incorporated, power set to 4, 2 min total, 5 sec on, 5 sec off) on ice. Cell debris were removed by centrifugation at 13000×g for 15 min at 4° C. and the supernatant was applied to a 3 ml fast flow cielating sepharose column (Amersham-Pharmacia, Quebec) previously loaded with nickel sulfate (30 ml of 0.1 M) and equilibrated with 5 column volumes (CV) of buffer A. Loading of the sample as well as all washing and elution steps were done by gravity. After loading of the sample, the column was washed with 10 CV of buffer A and 5 CV of buffer B (20 mM imidazole, 20 mM Tris pH 8, 0.1M NaCl). Elution was carried out with 3 CV of buffer C (1 M imidazole, 20 mM Tris pH 8, 0.5 M NaCl 0.1 M). Fractions were collected every 1 CV. […] This fraction was subjected to further purification by anion exchange chromatography after dilution 1/30 in 50 mM Tris pH 8. Half of it was loaded onto a 1 ml column of Q Sepharose fast flow (Pharmacia). The column was washed with 30 CV of Tris buffer and the protein was eluted with 3 CV of 50 mM Tris pH 8, 0.5 M NaCl. […] Protein quantitation was done using the BCA reagent (Pierce, Rockford, Ill.).

Data set [5] concerns the molecule itself. The data set can be described thus: gel filtration on G100 Sephadex, self-association (homodimer).
[6] abbreviates: fraction: anion exchange (purified WbpP).

Entries after “also recorded” stand apart in the source; their conditions may differ.

In the case of `[Ca+2].[Cl-].[Cl-]` [Ca^2+], the “Necessity of addition to the reaction mixture for the C4 epimerase activity” value (“Necessity of addition” for short) on WbpP [1] is recorded as “not necessary; also recorded: active without requiring addition”.

Regarding `[Cl-].[Cl-].[Mg+2]` [Mg^2+], the “Necessity of addition” value was “active without requiring addition” on WbpP [1] and “not necessary” on WbpP [1] (listed as Mg2^1).

Take `[Cl][Mn][Cl]` [Mn^2+]: the “Necessity of addition” value on WbpP [1] is “not necessary; also recorded: active without requiring addition”.

Take `NC(=O)c1ccc[n+]([C@@H]2O[C@H](COP(=O)([O-])OP(=O)(O)OC[C@H]3O[C@@H](n4cnc5c(N)ncnc54)[C@H](O)[C@@H]3O)[C@@H](O)[C@H]2O)c1` [NAD^+]: the “Necessity of addition” value is “active without requiring addition” at WbpP [1] and “not necessary” on WbpP [1] (listed as NAD^1).

As to `CC(=O)N[C@H]1[C@@H](OP(=O)(O)OP(=O)(O)OC[C@H]2O[C@@H](n3ccc(=O)[nH]c3=O)[C@H](O)[C@@H]2O)O[C@H](CO)[C@H](O)[C@@H]1O` [UDP-GalNAc, UDP-N-acetylgalactosamine], the “Maximum substrate conversion (at equilibrium)” value on WbpP [2] (acetylated substrates, epimerisation by WbpP) is ~70%. Further, the Specific activity turned out to be 4.6 U/mg on WbpP [2] (fraction: IMAC), 5.6 U/mg at WbpP [2] (setting [6]), 3.4 U/mg on WbpP [2] (fraction: soluble fraction) and 2.6 U/mg at WbpP [2] (fraction: total cell extract). The “Specific activity of purified WbpP” value on WbpP [2] is on record as 5.6 Units/mg. Further, at WbpP [3], the kcal was 271 ± 7 min⁻¹. Besides, on WbpP [3], the Km – broadly, the concentration of substrate that gives half-maximal velocity – was 197 µM. At WbpP [3], the Vmax (commonly the top rate of the reaction or transport when substrate is in excess) worked out at 840 ± 25 pmol/min.

In the case of `CC(=O)N[C@H]1[C@@H](OP(=O)(O)OP(=O)(O)OC[C@H]2O[C@@H](n3ccc(=O)[nH]c3=O)[C@H](O)[C@@H]2O)O[C@H](CO)[C@@H](O)[C@@H]1O` [UDP-GlcNAc, UDP-N-acetylglucosamine], the Specific activity was 2.0 U/mg at WbpP [2] (fraction: IMAC), 2.3 U/mg on WbpP [2] (setting [6]), 1.1 U/mg at WbpP [2] (fraction: soluble fraction) and 0.2 U/mg on WbpP [2] (fraction: total cell extract). For the same molecule, the “Specific activity of purified WbpP” value on WbpP [2] is on record as 2.3 Units/mg. The same molecule registered a kcal on WbpP [3] of 120 ± 3 min⁻¹. At WbpP [3], the Michaelis constant (Km) is 224 µM. Besides, at WbpP [3], the Vmax was 741 ± 22 pmol/min.

B1: WbpPO6 carrying a N-terminal hexahistidine tag (enzyme)
chain: MHHHHHHGSMGMMSRYEELRKELPAQPKVWLITGVAGFIGSNLLETLLKLDQKVVGLDNFATGHQRNLDEVRSLVSEKQWSNFKFIQGDIRNLDDCNNACAGVDYVLHQAALGSVPRSINDPITSNATNIDGFLNMLIAARDAKVQSFTYAASSSTYGDHPGLPKVEDTIGKPLSPYAVTKYVNELYADVFSRCYGFSTIGLRYFNVFGRRQDPNGAYAAVIPKWTSSMIQGDDVYINGDGETSRDFCYIENTVQANLLAATAGLDARNQVYNIAVGGRTSLNQLFFALRDGLAENGVSYHREPVYRDFREGDVRHSLADISKAAKLLGYAPKYDVSAGVALAMPWYIMFLK
notes: Expressed in E. coli BL21(DE3)pLysS from a pET23 derivative and purified by nickel chelation and anion exchange; In the Western immunoblot it stood as the SDS-denatured single chain; this is not a protein partner; also called WbpP epimerase; UDP-GlcNAc C4 epimerase
B1: the “pH with significant activity” value in the data set with WbpP [2] (epimerisation of UDP-GlcNAc) is > 6.5. Moreover, in data set [4], the Activity after storage entry was “without any significant loss of activity”. Besides, the binding result in data set [5] was “binds”.
